Measured values from patent US10525115B2 (Immatics Biotechnologies GmbH, priority 2014, dated 2020).
Blank lines part the entries; values can stand above or below the substance they belong to.

Assays:
MHC class I = MHC class I binding assay (UV-exchange, β2m ELISA); parameters: species or system human; conditions: yield of UV-exchange reaction
Protocol: Candidate peptides for T cell based therapies according to the present invention were further tested for their MHC binding capacity (affinity). The individual peptide-MHC complexes were produced by exchange with the peptide of interest as analyzed. Only peptide candidates that can effectively bind and stabilize the peptide-receptive MHC molecules prevent dissociation of the MHC complexes. To determine the yield of the exchange reaction, an ELISA was performed based on the detection of the light chain (β2m) of stabilized MHC complexes. The assay was performed as generally described in Rodenko et al. (Rodenko, B. et al., Nat Protoc. 1 (2006): 1120-1132).
96 well MAXISorp plates (NUNC) were coated over night with 2 ug/ml streptavidin in PBS at room temperature, washed 4× and blocked for 1 h at 37° C. in 2% BSA containing blocking buffer. Refolded HLA-A*0201/MLA-001 monomers served as standards, covering the range of 15-500 ng/ml. Peptide-MHC monomers of the UV-exchange reaction were diluted 100 fold in blocking buffer. Samples were incubated for 1 h at 37° C., washed four times, incubated with 2 μg/ml HRP conjugated anti-β2m for 1 h at 37° C., washed again and detected with TMB solution that is stopped with […]. Absorption was measured at 450 nm. Candidate peptides that show a high exchange yield (preferably higher than 50%, most preferred higher than 75%) are generally preferred for a generation and production of antibodies or fragments thereof, and/or T cell receptors or fragments thereof, as they show sufficient avidity to the MHC molecules and prevent dissociation of the MHC complexes.
MHC class I binding scores for the peptides as tested were; <20%=+; 20%-49%=++; 50%−75%=+++; >=75%=++++

HLA-DR1 = assay: REVEAL MHC-peptide binding assay; parameters: species or system human; conditions: for binding / complex formation: HLA-DR1; for stability of the formed HLA-peptide complex: HLA-DR1, after 24 h at 37° C.
Protocol: (§1) The promiscuous binding of GALNT7-001 and ERGIC1-001 to various HLA-DR haplotypes and the stability of the formed complexes was assessed in an in vitro binding assay.
(§2) The seven investigated HLA-DR haplotypes are selected according to their frequencies in HLA-A*02- and HLA-A*24-positive North American populations. Data are derived from the analysis of 1.35 million HLA-typed volunteers registered in the National Marrow Donor Program (Mori M, Beatty P G, Graves M, Boucher K M, Milford E L (1997). HLA gene and haplotype frequencies in the North American population: the National Marrow Donor Program Donor Registry. Transplantation 64, 1017-1027). The analyzed population was subdivided in the following ethnic groups: Caucasian Americans (N=997,193), African Americans (N=110,057), Asian Americans (N=81,139), Latin Americans (N=100,128), and Native Americans (N=19,203).
(§3) The MHC-peptide binding assay as used determined the ability of each candidate peptide to bind to the selected HLA class II haplotype and stabilize the HLA-peptide complex. For this, the candidate peptides are assembled in vitro with a particular HLA class II protein.
(§4) The binding capacity of a candidate peptide to a particular HLA molecule is compared to a reference peptide with known very strong binding properties (positive control) for each HLA haplotype. Experimental standard errors derive from binding experiments of triplicated positive controls.
(§5) Besides the affinity of a peptide to a particular HLA molecule, the enduring stability of the formed HLA-peptide complex is crucial for the occurrence of an immune response. For this reason the presence of the formed HLA-peptide complex is measured after its incubation for 24 h at 37° C. The stability of the formed MHC-peptide complex is calculated as a ratio of the binding scores at 24 h and the binding scores which are received right after the refolding (accordingly at time 0) in percent.

HLA-DR3 = assay: REVEAL MHC-peptide binding assay; parameters: species or system human
Protocol: as §1, §2, §3, §4, §5

HLA-DR4 = assay: REVEAL MHC-peptide binding assay; parameters: species or system human; conditions: for binding / complex formation: HLA-DR4; for stability of the formed HLA-peptide complex: HLA-DR4, after 24 h at 37° C.; for binding score: HLA-DR4, compared to the positive control, over 15% = strong binding
Protocol: as §1, §2, §3, §4, §5

HLA-DR5 = assay: REVEAL MHC-peptide binding assay; parameters: species or system human; conditions: for binding / complex formation: HLA-DR5; for stability of the formed HLA-peptide complex: HLA-DR5, after 24 h at 37° C.
Protocol: as §1, §2, §3, §4, §5

HLA-DR6 = assay: REVEAL MHC-peptide binding assay; parameters: species or system human
Protocol: as §1, §2, §3, §4, §5

HLA-DR7 = assay: REVEAL MHC-peptide binding assay; parameters: species or system human; conditions: for binding / complex formation: HLA-DR7; for stability of the formed HLA-peptide complex: HLA-DR7, after 24 h at 37° C.
Protocol: as §1, §2, §3, §4, §5

HLA-DR2 = HLA-DR2 (Homo sapiens, UniProt P01903+P01911); assay: REVEAL MHC-peptide binding assay; conditions: for binding / complex formation: HLA-DR2
Protocol: as §1, §2, §3, §4, §5

HLA-DR haplotypes = assay: REVEAL MHC-peptide binding assay, panel of seven HLA-DR haplotypes; parameters: species or system human; conditions: for number of formed HLA-peptide complexes stable for at least 24 h: of 5 formed complexes, 37° C.; for number of HLA-DR haplotypes with considerable binding capacity / number of HLA-DR haplotypes with which a complex was formed: of 7 investigated HLA-DR haplotypes
Protocol: as §1, §2, §3, §4, §5

AML patient PBMC = assay: 12-day recall IFN-γ ELISPOT assay, HLA class II LiTAPs, AML patient PBMC; type: cell-based, human; conditions: HLA class II peptide
Protocol: (§6) PBMC from AML patients and healthy volunteers were cultured in RPMI1640 medium (Gibco) supplemented with 10% pooled human serum (PHS, produced in-house), […] β-mercaptoethanol (Roth, Karlsruhe, Germany) and 1% penicillin/streptomycin (GE). For CD8^+ T cell stimulation, PBMC were thawed and pulsed with 1 μg/ml per peptide. Peptide-pulsed PBMC (5-6×10^6 cells/ml) were cultured at 37° C. and 5% CO2 for 12 days. On day 0 and day 1, 5 ng/ml IL-4 (R&D Systems, Minneapolis, Minn., USA) and 5 ng/ml IL-7 (Promokine, Heidelberg, Germany) were added to the culture medium. On days 3, 5, 7 and 9, 2 ng/ml IL-2 (R&D Systems) were added to the culture medium. Peptide-stimulated PBMC were functionally characterized by ELISPOT assays on day 12 and by intracellular cytokine staining on day 13 respectively. For CD4^+ T-cell stimulation, culture was performed as described for CD8^+ T cells with 2 modifications: pulsing was carried out with 10 μg/ml of HLA class II peptide and no IL-4 and IL-7 was added.
(§7) IFN-γ ELISPOT assays were carried out as described previously (Widenmeyer M, Griesemann H, Stevanovic S, Feyerabend S, Klein R, Attig S, et al. Promiscuous survivin peptide induces robust CD4+ T-cell responses in the majority of vaccinated cancer patients. Int J Cancer. 2012 Jul. 1; 131(1):140-9). In brief, 96-well nitrocellulose plates (Millipore) were coated with 1 mg/ml IFN-γ mAb (Mabtech, Cincinnati, Ohio, USA) and incubated over night at 4° C. Plates were blocked with 10% PHS for 2 h at 37° C. 5×10^5 cells/well of pre-stimulated PBMC were pulsed with 1 μg/ml (HLA class I) or 2.5 μg/ml (HLA class II) peptide and incubated for 24-26 h. Readout was performed according to manufacturer's instructions. Spots were counted using an ImmunoSpot S5 analyzer (CTL, Shaker Heights, Ohio, USA). T cell responses were considered to be positive when >15 spots/well were counted and the mean spot count per well was at least 3-fold higher than the mean number of spots in the negative control wells (according to the cancer immunoguiding program (CIP) guidelines).

healthy donor PBMC = assay: Cross-checking IFN-γ ELISPOT assay, HLA class II LiTAPs, healthy donor PBMC; type: cell-based, human; conditions: HLA class II peptide
Protocol: as §6, §7

HLA-DR2, sequence (P01903 26-216 limits assumed): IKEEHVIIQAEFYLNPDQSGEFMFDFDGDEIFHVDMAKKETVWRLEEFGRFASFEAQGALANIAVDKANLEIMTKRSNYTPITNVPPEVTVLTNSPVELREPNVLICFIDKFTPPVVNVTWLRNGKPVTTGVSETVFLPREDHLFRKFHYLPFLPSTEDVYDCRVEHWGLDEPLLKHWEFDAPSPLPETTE
HLA-DR2, sequence (P01911 30-227 limits assumed): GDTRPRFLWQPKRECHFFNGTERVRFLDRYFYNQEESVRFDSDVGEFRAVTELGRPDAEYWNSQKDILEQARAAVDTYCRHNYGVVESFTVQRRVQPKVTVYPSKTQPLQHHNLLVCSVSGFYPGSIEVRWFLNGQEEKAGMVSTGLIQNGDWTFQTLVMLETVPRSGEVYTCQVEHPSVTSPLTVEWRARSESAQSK

Substance: FEGQFSINKVPGNFHVS (listed as Homo sapiens) [SEQ ID NO 604]
binding / complex formation (HLA-DR1): form a complex | stability of the formed HLA-peptide complex (HLA-DR1): stable | binding / complex formation (HLA-DR3): did not bind | binding / complex formation (HLA-DR4): form a complex | stability of the formed HLA-peptide complex (HLA-DR4): stable | binding score (HLA-DR4): ≥ 15% | binding / complex formation (HLA-DR5): form a complex | stability of the formed HLA-peptide complex (HLA-DR5): stable | binding score (HLA-DR5; HLA-DR5, compared to the positive control, over 15% = strong binding): ≥ 15% | binding / complex formation (HLA-DR6): did not bind | binding / complex formation (HLA-DR7): form a complex | stability of the formed HLA-peptide complex (HLA-DR7): stable | binding / complex formation (HLA-DR2): form a complex | number of formed HLA-peptide complexes stable for at least 24 h (HLA-DR haplotypes): 4 | number of HLA-DR haplotypes with considerable binding capacity (HLA-DR haplotypes): at least 2 | number of HLA-DR haplotypes with which a complex was formed (HLA-DR haplotypes): 5

Substance: GNQLFRINEANQLMQ (listed as Homo sapiens) [SEQ ID NO 597]
binding / complex formation (HLA-DR1): form a complex | stability of the formed HLA-peptide complex (HLA-DR1): stable | binding score (HLA-DR1; HLA-DR1, compared to the positive control, over 15% = strong binding): over 15% | binding / complex formation (HLA-DR3): did not bind | binding / complex formation (HLA-DR4): form a complex | stability of the formed HLA-peptide complex (HLA-DR4): stable | binding score (HLA-DR4): over 15% | binding / complex formation (HLA-DR5): form a complex | stability of the formed HLA-peptide complex (HLA-DR5): stable | binding / complex formation (HLA-DR6): did not bind | binding / complex formation (HLA-DR7): form a complex | stability of the formed HLA-peptide complex (HLA-DR7): stable | binding score (HLA-DR7; HLA-DR7, compared to the positive control, over 15% = strong binding): over 15% | binding / complex formation (HLA-DR2): form a complex | binding score (HLA-DR2; HLA-DR2, compared to the positive control, over 15% = strong binding): over 15% | number of formed HLA-peptide complexes stable for at least 24 h (HLA-DR haplotypes): 4 | number of HLA-DR haplotypes with considerable binding capacity (HLA-DR haplotypes): at least 4 | number of HLA-DR haplotypes with which a complex was formed (HLA-DR haplotypes): 5

Substance: HRSFVDLSGHNLANPHP (listed as Homo sapiens) [SEQ ID NO 478]
T cell responses (IFN-γ ELISPOT), share of AML patients (AML patient PBMC): 26.7% | T cell responses (IFN-γ ELISPOT) in AML patients (positive/tested) (AML patient PBMC; listed as PII1): significant increase in IFN-γ production | T cell responses (IFN-γ ELISPOT) in AML patients (positive/tested) (AML patient PBMC; listed as P^II1): 4/15 | IFN-γ secretion in ELISPOT, healthy donor PBMC (positive/tested) (healthy donor PBMC): 0/8

Substance: SPNIVIALSGNKADLA (listed as Homo sapiens) [SEQ ID NO 558]
T cell responses (IFN-γ ELISPOT), share of AML patients (AML patient PBMC): 20.0% | T cell responses (IFN-γ ELISPOT) in AML patients (positive/tested) (AML patient PBMC; listed as P[[I]]II2): significant increase in IFN-γ production | T cell responses (IFN-γ ELISPOT) in AML patients (positive/tested) (AML patient PBMC; listed as P^II2): 3/15 | IFN-γ secretion in ELISPOT, healthy donor PBMC (positive/tested) (healthy donor PBMC): 0/8

Substance: TEGQFVDLTGNRLTYT (listed as Homo sapiens) [SEQ ID NO 544]
T cell responses (IFN-γ ELISPOT), share of AML patients (AML patient PBMC): 13.3% | T cell responses (IFN-γ ELISPOT) in AML patients (positive/tested) (AML patient PBMC; listed as P[[I]]II3): significant increase in IFN-γ production | T cell responses (IFN-γ ELISPOT) in AML patients (positive/tested) (AML patient PBMC; listed as P^II3): 2/15 | IFN-γ secretion in ELISPOT, healthy donor PBMC (positive/tested) (healthy donor PBMC): 0/8

More lines, now with the values ahead:

Peptide exchange (MHC class I binding score) (MHC class I): ++++ (>=75%=++++)
Substance: 36 (SLLYKVPYV; listed as Homo sapiens) [compound 36]

Peptide exchange (MHC class I binding score) (MHC class I): ++++ (>=75%=++++)
Substance: 54 (AVIEAEKIAQV; listed as Homo sapiens) [compound 54]

Peptide exchange (MHC class I binding score) (MHC class I): ++++ (>=75%=++++)
Substance: 251 (VLGGKAFLEHL; listed as Homo sapiens) [compound 251]

Peptide exchange (MHC class I binding score) (MHC class I): ++++ (>=75%=++++)
Substance: 266 (KLQEQLAQL; listed as Homo sapiens) [compound 266]
